Source: patent US5206148A, “Method for assaying aliphatic alcohol, aliphatic aldehyde or ω-carboxylic acid derivatives thereof” (Asahi Kasei Kogyo Kabushiki Kaisha, priority 1991, dated 1993)
Blank lines part the entries; values can stand above or below the compound they belong to.

How the values were obtained:
Assay type in all cases: biochemical, Streptomyces sp. AC 8205
[1] = tested on: ω-carboxyalcohol oxidase; assay: Effects of reagents (detergents and metal ions) on enzyme activity; settings: None = 100
Procedure: (§1) An enzyme solution (25 μl) was added to the above mixture (0.5 ml), followed by incubation at 37° C. for exactly 10 mins., whereupon sodium dodecyl sulfate (SDS) (0.5 ml) was added thereto, then absorbance at 545 nm was measured. One unit of enzyme is defined by the activity which generates 1 μmole of hydrogen peroxide per minute.
The effects of various detergent and metal ions are shown in Table 4, in which the listed reagents show no significant effect on the enzyme. Activities of the enzyme are measured by adding each listed detergent and metal ion to the assay method described above at item 1.

[2] = tested on: ω-carboxyalcohol oxidase; assay: Substrate specificity of ω-carboxyalcohol oxidase (peroxidase/4-aminoantipyrine H2O2 assay); design: Relative Activity (%): concentration or dose not given beside the values; settings: for Relative Activity (%): substrate in place of 12-hydroxydodecanoic acid, activity on 12-hydroxydodecanoic acid defined as 100, pH 7.5, 37° C., 10 mins.; for Substrate specificity: statement in words, from Table 2
Procedure: as §1
Assay method: In the assay method illustrated at item 1. hereinabove, 12-hydroxydodecanoic acid was replaced by the substrates indicated in Table 2, and the resulting relative activities were produced, defining the activity on 12-hydroxydodecanoic acid as 100.

[3] = tested on: ω-carboxyalcohol oxidase; assay: Utilization of coenzyme (absorbance at 340 nm); settings: for A340nm: 37° C., one unit of enzyme, 12-hydroxydodecanoic acid; for Utilization of coenzyme: statement in words
Procedure: One unit of enzyme is added to the reaction mixture (2.0 ml) hereinabove and the absorbance at 340 nm and 37° C. is continuously measured.

Relative Activity (%) ([1]; reagent 1 mM): 97.0%
Compound: [Ca+2].[Cl-].[Cl-] [CaCl]

Compound: C[C@H](CCC(=O)O)[C@H]1CC[C@H]2[C@@H]3[C@H](O)C[C@@H]4C[C@H](O)CC[C@]4(C)[C@H]3C[C@H](O)[C@]12C [Cholate]
Relative Activity (%) ([1]; reagent 10 mM): 94.9%

Compound: C[C@H](CCC(=O)O)[C@H]1CC[C@H]2[C@@H]3CC[C@@H]4C[C@H](O)CC[C@]4(C)[C@H]3C[C@H](O)[C@]12C [Deoxycholate]
Relative Activity (%) ([1]; reagent 10 mM): 94.9%

Relative Activity (%) [2]: 6.6%
Compound: CCCO [H3 C--(CH2)2 --OH]

Relative Activity (%) [2]: 76.1%
Compound: CCCCO [H3 C--(CH2)3 --OH]

Substrate specificity [2]: has substrate specificity | Relative Activity (%) [2]: 88.5%
Compound: CCCCCCO [H3 C--(CH2)5 --OH]

Relative Activity (%) [2]: 59.1%
Compound: CCCCCCCCC=CCCCCCCCCO [H3 C--(CH2)7 --CH=CH--(CH2)8 --OH]

Substrate specificity [2]: has substrate specificity | Relative Activity (%) [2]: 88.5%
Compound: CCCCCCCCO [H3 C--(CH2)7 --OH]

Substrate specificity [2]: has substrate specificity | Relative Activity (%) [2]: 87.6%
Compound: CCCCCCCCCCO [H3 C--(CH2)9 --OH]

Substrate specificity [2]: has substrate specificity | Relative Activity (%) [2]: 86.1%
Compound: CCCCCCCCCCCCO [H3 C--(CH2)11 --OH]

Compound: CCCCCCCCCCCCCCO [H3 C--(CH2)13 --OH]
Relative Activity (%) [2]: 76.1%

Relative Activity (%) [2]: 60.2%
Compound: CCCCCCCCCCCCCCCCO [H3 C--(CH2)15 --OH]

Substrate specificity [2]: no specificity | Relative Activity (%) [2]: 0%
Compound: CCO [H3 C--CH2 --OH, ethanol]

Compound: CO [H3 C--OH, methanol]
Substrate specificity [2]: no specificity | Relative Activity (%) [2]: 0%

Compound: O=C(O)CCCCCCCCCCCO [HO2 C--(CH2)11 --OH, 12-hydroxydodecanoic acid]
Substrate specificity [2]: has substrate specificity | Relative Activity (%) [2]: 100%

Compound: O=C(O)CCCCCCCCCCCCCCCO [HO2 C--(CH2)15 --OH, 16-hydroxy hexadecanoic acid]
Relative Activity (%) [2]: 65.5%

Compound: [Cl-].[K+] [KCl]
Relative Activity (%) ([1]; reagent 100 mM): 97.6%

Compound: [Cl-].[Cl-].[Mg+2] [MgCl2]
Relative Activity (%) ([1]; reagent 1 mM): 98.2%

Compound: [Cl][Mn][Cl] [MnCl2]
Relative Activity (%) ([1]; reagent 1 mM): 102.4%

A340nm ([3]; 0 min.): 0.046 | A340nm ([3]; 2 mins.): 0.047 | A340nm ([3]; 4 mins.): 0.045 | A340nm ([3]; 6 mins.): 0.046 | A340nm ([3]; 8 mins.): 0.046 | A340nm ([3]; 10 mins.): 0.047 | Utilization of coenzyme [3]: No utilization
Compound: NC(=O)c1ccc[n+]([C@@H]2O[C@H](COP(=O)([O-])OP(=O)(O)OC[C@H]3O[C@@H](n4cnc5c(N)ncnc54)[C@H](OP(=O)(O)O)[C@@H]3O)[C@@H](O)[C@H]2O)c1 [NADP]

A340nm ([3]; 0 min.): 0.062 | A340nm ([3]; 2 mins.): 0.061 | A340nm ([3]; 4 mins.): 0.060 | A340nm ([3]; 6 mins.): 0.062 | A340nm ([3]; 8 mins.): 0.061 | A340nm ([3]; 10 mins.): 0.061 | Utilization of coenzyme [3]: No utilization
Compound: NC(=O)c1ccc[n+]([C@@H]2O[C@H](COP(=O)([O-])OP(=O)(O)OC[C@H]3O[C@@H](n4cnc5c(N)ncnc54)[C@H](O)[C@@H]3O)[C@@H](O)[C@H]2O)c1 [NAD]

Relative Activity (%) ([1]; reagent 100 mM): 89.0%
Compound: Cl.N [NH4 Cl]

Compound: [Cl-].[Na+] [NaCl]
Relative Activity (%) ([1]; reagent 100 mM): 95.1%

Substrate specificity [2]: no specificity | Relative Activity (%) [2]: 0%
Compound: OCC(O)CO [glycerol]

Compound: Triton X-100
Relative Activity (%) ([1]; reagent 1.0%): 93.1%
